Patent publication US10393633B2, “Sample fixation and stabilisation” (RNASSIST LTD., priority 2013, dated 2019)
Where two headings read alike, the source gives them in different places.

Assays:
[1] = Solid or liquid state of the mixtures at 24° C. / 100° C.; type: physicochemical; details: for Room temperature (24° C.) DES liquid on mixing with Choline chloride: 1:2 mol:mol proportion
[2] = test system: RNA in rat tissue; test: RNA stabilisation in animal tissue by DES mixtures, 37° C. 18 hours, RNA yield and gel RNA quality (Example 3, Tables 1 and 2)
Procedure: To 400 μl of the following DES mixtures in a 2 ml polypropylene tube was added 5-15 mg of rat tissue (frozen tissue stock), following a 20 minute fixation step the sample was incubated at 37° C. for 18 hours prior to RNA extraction/purification using a RNeasy Micro kit (Cat. No. 74004, Qiagen, Germany). Whether the DES mixture was a solid or liquid at room temperature, the RNA yield following extraction and the RNA quality on a scale of 1-10 (with 0 indicating no stabilisation and 10 indicating no degradation, compared with the RNA quality of immediately extracted RNA from a fresh rat liver tissue sample=10).

[3] = test system: RNA of guanidine lysate; test: RNA yields from Guanidine/Choline chloride:Trifluoroacetamide mixtures in the absence of ethanol for binding (Example 30, Table 11); design: species or system mouse; details: no ethanol
[4] = 0 highly degraded to 10 highest quality, 18S/28S rRNA on agarose gel, 37° C. 18 hours
[5] = Table 1, solid or liquid at room temperature

Structure (SMILES)	Room temperature (24° C.) DES liquid on mixing with Choline chloride [1]	other results
CN1CCN(C)C1=O [1,3-Dimethyl-2-imidazolidone]	could not be prepared	–
c1ccc(Cn2ccnc2)cc1 [1-Benzylimidazole]	could not be prepared	–
CCN1CCCC1=O [1-Ethyl-2-pyrrol]	could not be prepared	–
O=CN1CCOCC1 [4-Formyl morpholine]	could not be prepared	–
CC(=O)CCC(C)=O [Acetonyl acetone]	could not be prepared	–
N.N.N.O=P(O)(O)O [Ammonium phosphate]	–	Formation of room temperature DES liquids by ammonium salts [1]: not capable of forming room temperature DES liquids
C[N+](C)(C)CC(=O)O [Betaine:Water (Sat'd), Betaine, reference compound]	–	RNA Quality 0-10 [2, 4]: 0; Liquid at 24° C. [1, 5]: Yes
C[N+](C)(C)CCO.[Cl-] [Choline chloride:Water (6M), Choline chloride, reference compound]	–	RNA Quality 0-10 [2]: 3; Liquid at 24° C. [1]: Saturated
O=C1OCCO1 [Ethylene carbonate]	could not be prepared	–
CCn1ccnc1 [N-Ethylimidazole]	could not be prepared	–
NC(=O)C(N)=O [Oxamide]	could not be prepared	–
CC(C)(C)C(N)=O [Pivalamide]	could not be prepared	–
O=C(O)[C@@H]1CCCN1 [Proline]	could not be prepared	–
NC(=O)C(F)(F)F [Trifluoroacetamide]	–	RNA yield compared with Choline chloride:Trifluoroacetamide dissolved in Buffer RLT (1:1 wt:wt) [3]: 15%
NC(N)=O [Water:Urea (5M), Urea, reference compound]	–	RNA Quality 0-10 [2, 4]: 0; Liquid at 24° C. [1, 5]: Saturated
